Columns and labels:
TRZAS = experiment: Post-emergence herbicidal effect and crop plant compatibility, greenhouse pot test; assay type: in vivo, Triticum aestivum; settings: for percent crop injury (phytotoxicity) to wheat, post-emergence at 20 g/ha: Triticum aestivum, 504 h, read-out: Post-emergence effect at 20 g/ha against TRZAS in %
From the text: • ALOMY: Alopecurus myosuroides SETVI: Setaria viridis • AVEFA: Avena fatua POLCO: Fallopia convolvulus • AMARE: Amaranthus retroflexus ECHCG: Echinochloa crus-galli • LOLRJ: Lolium rigidum STEME: Stellaria media • VERPE: Veronica persica MATIN: Tripleurospermum inodorum • DIGSA: Digitaria sanguinalis ABUTH: Abutylon threophrasti • TRZAS: Triticum aestivum VIOTR: Viola tricolor • BRSNW: Brassica napus ZEAMX: Zea mays • PHBPU: Ipomoea purpurea GLXMA: Glycine max • ORYSA: Oryza sativa HORMU: Hordeum murinum
Seeds of monocotyledonous and dicotyledonous weeds and crop plants are placed in sandy loam in plastic or organic planting pots, covered with soil and cultivated in a greenhouse under controlled growth conditions. 2 to 3 weeks after sowing, the trial plants are treated at the one-leaf stage. The compounds of the invention, formulated in the form of wettable powders (WP) or as emulsion concentrates (EC), are then sprayed onto the green parts of the plants as aqueous suspension or emulsion with addition of 0.5% additive at a water application rate of 600 l/ha (converted). After the test plants have been kept in the greenhouse under optimum growth conditions for about 3 weeks, the activity of the preparations is rated visually in comparison to untreated controls. For example, 100% activity=the plants have died, 0% activity=like control plants.
Tables 20a to 38c below show the effects/crop compatibilities of selected compounds of the general formula (I) on various harmful plants at an application rate corresponding to 20 to 320 g/ha, which were obtained by the trial procedure specified above.

PHBPU = experiment: Post-emergence herbicidal effect, greenhouse pot test; assay type: in vivo, Ipomoea purpurea
How it was run: (§1)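 Greenhouse pot test: weeds and crops sown in sandy loam, sprayed post-emergence at one-leaf stage (2–3 weeks after sowing) with WP or EC formulations plus 0.5% additive at 600 l/ha water, rates 20–320 g/ha. Visual rating about 3 weeks later versus untreated controls (100% = dead, 0% = as control).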

VERPE = experiment: as above; assay type: in vivo, Veronica persica
How it was run: as §1

POLCO = experiment: as above; assay type: in vivo, Fallopia convolvulus; settings: Fallopia convolvulus, 504 h, read-out: Post-emergence effect against POLCO in %
How it was run: as §1

AVEFA = experiment: as above; assay type: in vivo, Avena fatua; settings: 320 g/ha, visual rating about 3 weeks after treatment; for pest or weed control at 320 g/ha: Avena fatua, 504 h, read-out: Post-emergence effect against AVEFA
How it was run: as §1

ALOMY = experiment: as above; assay type: in vivo, Alopecurus myosuroides; settings: Alopecurus myosuroides, 504 h, 320 g/ha, visual rating about 3 weeks after treatment, read-out: Post-emergence effect against ALOMY
How it was run: as §1

MATIN = experiment: as above; assay type: in vivo, Tripleurospermum inodorum
How it was run: as §1

LOLRI = experiment: as above; assay type: in vivo, Lolium rigidum; settings: 320 g/ha; for pest or weed control at 320 g/ha: Lolium rigidum, 504 h, read-out: Post-emergence effect against LOLRI in %
How it was run: as §1

VIOTR = experiment: as above; assay type: in vivo, Viola tricolor
How it was run: as §1

ECHCG = experiment: as above; assay type: in vivo, Echinochloa crus-galli
How it was run: as §1

DIGSA = experiment: as above; assay type: in vivo, Digitaria sanguinalis; settings: 320 g/ha, visual rating about 3 weeks after treatment
How it was run: as §1

SETVI = experiment: as above; assay type: in vivo, Setaria viridis
How it was run: as §1

ABUTH = experiment: as above; assay type: in vivo, Abutilon theophrasti; settings: visual rating about 3 weeks after treatment
How it was run: as §1

AMARE = experiment: as above; assay type: in vivo, Amaranthus retroflexus; settings: visual rating about 3 weeks after treatment
How it was run: as §1

ZEAMX = experiment: Post-emergence herbicidal effect and crop plant compatibility, greenhouse pot test; assay type: in vivo, Zea mays; settings: Zea mays, 504 h, 20 g/ha, one-leaf stage, rated visually after about 3 weeks vs untreated controls, read-out: Post-emergence effect at 20 g/ha against ZEAMX in %
How it was run: as §1

[1] = 20 g/ha, one-leaf stage, rated visually after about 3 weeks vs untreated controls
[2] = Ipomoea purpurea, 504 h, 80 g/ha, read-out: Post-emergence effect against PHBPU in %
[3] = Ipomoea purpurea, 504 h, 320 g/ha, read-out: Post-emergence effect against PHBPU in %
[4] = Veronica persica, 504 h, 320 g/ha, read-out: Post-emergence effect against VERPE in %
[5] = Viola tricolor, 504 h, read-out: Post-emergence effect against VIOTR in %
[6] = Viola tricolor, 504 h, 320 g/ha, read-out: Post-emergence effect against VIOTR in %
[7] = Echinochloa crus-galli, 504 h, 320 g/ha, read-out: Post-emergence effect against ECHCG in %
[8] = Setaria viridis, 504 h, 320 g/ha, read-out: Post-emergence effect against SETVI in %
[9] = Abutilon theophrasti, 504 h, 320 g/ha, read-out: Post-emergence effect against ABUTH

CCOC(=O)C(OC)Oc1nn(-c2cc(F)ccc2F)c(-c2cncc(F)c2)c1Br (stereo not drawn) [Example I-33]
20%: percent crop injury (phytotoxicity) to wheat, post-emergence at 20 g/ha (TRZAS; [1])
80%: pest or weed control at 20 g/ha (PHBPU; Ipomoea purpurea, 504 h, 20 g/ha, read-out: Post-emergence effect against PHBPU in %) | pest or weed control at 80 g/ha (VERPE; Veronica persica, 504 h, 80 g/ha, read-out: Post-emergence effect against VERPE in %) | pest or weed control at 320 g/ha (POLCO) | pest or weed control at 80 g/ha (MATIN; Tripleurospermum inodorum, 504 h, 80 g/ha, read-out: Post-emergence effect against MATIN in %) | pest or weed control at 20 g/ha (VIOTR; Viola tricolor, 504 h, 20 g/ha, read-out: Post-emergence effect against VIOTR in %) | pest or weed control at 80 g/ha (VIOTR; [5]) | pest or weed control at 80 g/ha (ECHCG; Echinochloa crus-galli, 504 h, 80 g/ha, read-out: Post-emergence effect against ECHCG in %) | pest or weed control at 320 g/ha (DIGSA; Digitaria sanguinalis, 504 h, read-out: Post-emergence effect against DIGSA)
90%: pest or weed control at 80 g/ha (PHBPU; [2]) | pest or weed control at 320 g/ha (PHBPU; [3]) | pest or weed control at 320 g/ha (VERPE; [4]) | pest or weed control at 320 g/ha (AVEFA) | pest or weed control at 320 g/ha (ALOMY) | pest or weed control at 320 g/ha (MATIN; Tripleurospermum inodorum, 504 h, 320 g/ha, read-out: Post-emergence effect against MATIN in %) | pest or weed control at 320 g/ha (LOLRI) | pest or weed control at 320 g/ha (VIOTR; [6]) | pest or weed control at 320 g/ha (ECHCG; [7]) | pest or weed control at 80 g/ha (SETVI; Setaria viridis, 504 h, 80 g/ha, read-out: Post-emergence effect against SETVI in %) | pest or weed control at 320 g/ha (SETVI; [8]) | pest or weed control at 80 g/ha (ABUTH; Abutilon theophrasti, 504 h, 80 g/ha, read-out: Post-emergence effect against ABUTH) | pest or weed control at 320 g/ha (ABUTH; [9])

COC(=O)C(OC)Oc1nn(-c2ncccc2F)c(-c2ccc(F)nc2)c1I (stereo not drawn) [Example I-39]
100%: pest or weed control at 320 g/ha (AVEFA) | pest or weed control at 320 g/ha (ALOMY) | pest or weed control at 320 g/ha (LOLRI)
20%: plant injury at 20 g/ha (ZEAMX)
90%: pest or weed control at 80 g/ha (PHBPU; [2]) | pest or weed control at 320 g/ha (PHBPU; [3]) | pest or weed control at 320 g/ha (VERPE; [4]) | pest or weed control at 80 g/ha (POLCO; 80 g/ha) | pest or weed control at 320 g/ha (POLCO) | pest or weed control at 320 g/ha (VIOTR; [6]) | pest or weed control at 320 g/ha (ECHCG; [7]) | pest or weed control at 320 g/ha (SETVI; [8]) | pest or weed control at 320 g/ha (ABUTH; [9])
80%: pest or weed control at 320 g/ha (AMARE; Amaranthus retroflexus, 504 h, 320 g/ha, read-out: Post-emergence effect against AMARE) | pest or weed control at 80 g/ha (VIOTR; [5])
0%: percent crop injury (phytotoxicity) to wheat, post-emergence at 20 g/ha (TRZAS; [1])

COC(=O)C(OC)Oc1nn(-c2cccc(C)c2F)c(-c2ccc(F)nc2)c1Br (stereo not drawn) [Example I-114]
0%: Post-emergence effect at 20 g/ha against TRZAS in % (TRZAS; [1])
20%: Post-emergence effect against TRZAS (TRZAS; 80 g/ha, visual rating about 3 weeks after treatment, crop plant)
100%: Post-emergence effect against ECHCG in % (ECHCG; 320 g/ha)
90%: Post-emergence effect against PHBPU in % (PHBPU; 320 g/ha) | Post-emergence effect against VERPE in % (VERPE; 320 g/ha) | Post-emergence effect against AMARE (AMARE; 320 g/ha) | Post-emergence effect against MATIN in % (MATIN; 320 g/ha) | Post-emergence effect against VIOTR in % (VIOTR; 320 g/ha) | Post-emergence effect against ECHCG in % (ECHCG; 80 g/ha) | Post-emergence effect against SETVI in % (SETVI; 320 g/ha) | Post-emergence effect against ABUTH (ABUTH; 320 g/ha)
80%: Post-emergence effect against PHBPU in % (PHBPU; 80 g/ha) | Post-emergence effect against VERPE in % (VERPE; 20 g/ha) | Post-emergence effect against VERPE in % (VERPE; 80 g/ha) | Post-emergence effect against AMARE (AMARE; 20 g/ha) | Post-emergence effect against AMARE (AMARE; 80 g/ha) | Post-emergence effect against AVEFA (AVEFA) | Post-emergence effect against MATIN in % (MATIN; 80 g/ha) | Post-emergence effect against LOLRI in % (LOLRI) | Post-emergence effect against ECHCG (ECHCG; 20 g/ha, visual rating about 3 weeks after treatment) | Post-emergence effect against DIGSA (DIGSA) | Post-emergence effect against ABUTH (ABUTH; 80 g/ha)
